Common to all, as to assay type: cell-based, human
One test has as its system HAS2. Description: HAS2 gene expression by dermal fibroblasts (qPCR). The note with it: TGF-β1 10 ng/ml. The source says: (§1) A normal adult skin biopsy (6 mm) was obtained (n=1), with informed consent, from an individual attending the Oral Surgery Clinic, School of Dentistry, Wales College of Medicine, Cardiff. Following the application of a local anaesthetic, the dermal biopsy was collected and adult dermal fibroblast cultures established by single cell suspension technique, following enzymic degradation of the specimen. This technique has previously been reliably used to establish viable primary cultures of both oral and dermal fibroblasts in vitro (Cook et al, 2000; Stephens et al, 2001; 2003). Dermal fibroblasts were cultured in Fibroblast-Serum Containing Medium, containing Dulbecco's Modified Eagle's Medium (DMEM), supplemented with L-glutamine (2 mM), antibiotics (100 U/ml) penicillin G sodium, […] streptomycin sulphate and 0.25 μg/ml amphotericin B) and 10% foetal calf serum (all purchased from Invitrogen Ltd., Paisley, U.K.). Dermal fibroblast cultures were maintained at 37° C., in a 5% CO2/95% air atmosphere, with the culture medium being changed every 2-3 days. Dermal fibroblasts were used between) passage 7-17, for all experiments.
(§2) Following trypsinization, dermal fibroblasts were seeded in 24-well tissue culture plates, in PEP005-free, Fibroblast-Serum Containing Medium (1 ml), at a cell density of 2.5×10^4 cell/well. Dermal fibroblasts were maintained at 37° C., in a 5% CO2/95% air atmosphere, overnight. At this stage, the culture medium was replaced with Fibroblast-Serum Containing Medium (600 μl), containing 0 μg/ml, 0.01 μg/ml, 0.1 μg/ml, 1 μg/ml, 10 μg/ml or 100 μg/ml PEP005, +/−TGF-β1 (10 ng/ml) (three culture wells per PEP005 concentration). A control was also established, consisting of cells in Fibroblast-Serum Containing Medium, containing 1% DMSO. The dermal fibroblasts were maintained at 37° C., in a 5% CO2/95% air atmosphere, for 24 h or 72 h, prior to washing in PBS (3×1 ml) and Trizol® Reagent (250 μl) added to the cells, for 5 min at room temperature, to induce cell lysis. RNA was extracted by the phenol-chloroform method, as described above, while a cDNA library was generated via random hexamer RT, as described above. RNA (1 μg) was added to 100 µM random hexamer (1 μl), 5×RT Buffer (4 μl), 2.5 mM Deoxynucleoside Triphosphates (dNTPs, 5 μl), 2 μl DTT and Nuclease-Free Water, were added to the reaction (total volume, 20 μl). To denature the RNA, reaction tubes were placed in a GeneAmp PCR System 9700 (Applied Biosystems, Cheshire, U.K.) and heated for 5 min/95° C., prior to cooling to 4° C. Superscript (1 μl) and RNAsin® Ribonuclease Inhibitor (1 μl, Promega, Hampshire, U.K.) were added to each tube, and the tubes subjected to […] at 20° C. for 10 min, 42° C. for 1 h and 95° C. for 5 min, prior to storage at 4° C., until required. As a negative control, RT was also performed, with Nuclease-Free Water replacing the RNA sample.
(§3) qPCR was performed, as described above, with the probe and primers for HAS1, HAS2 and HAS3 (target genes) and the 18s ribosomal RNA (reference gene), designed and supplied by Applied Biosystems. PCR was performed in a final volume of 20 μl/sample, with each reaction mix consisting of cDNA (1 μl), target gene primers and probe (1 μl), Taqman® FAST Universal PCR Master Mix (10 μl, Applied Biosystems), and Nuclease-Free Water (8 μl). PCR amplification was performed, using an initial cycle of 95° C. for 1 s, followed by 40 cycles of 60° C. for 20 s. A cDNA-free control was also included. Again, the comparative CT method was used for relative quantification of gene expression. Each experiment was performed on three separate occasions.

The subject of test [1] is dermal fibroblasts. The experiment in a line: Hyaluronan pericellular coat formation by dermal fibroblasts (particle exclusion assay). To be noted: TGF-β1 10 ng/ml, absence of PEP005, 24 h.
Source text: as §1
Following trypsinization, dermal fibroblasts were seeded in 53 mm bacteriological grade culture dishes (VWR International Ltd., Leicestershire, U.K.), in PEP005-free, Fibroblast-Serum Containing Medium (2 ml), at a density of 7×10^4 cell/dish. Dermal fibroblasts were maintained at 37° C., in a 5% CO2/95% air atmosphere, overnight, prior to washing in PBS (2×2 ml) and maintenance in serum-free, Fibroblast-Serum Containing Medium (2 ml), containing 0 μg/ml, 0.01 μg/ml, 0.1 μg/ml, 1 μg/ml, 10 μg/ml or 100 μg/ml PEP005, +/−TGF-β1 (10 ng/ml) (three culture dishes per PEP005 concentration). A control was also established, consisting of cells in serum-free, Fibroblast-Serum Containing Medium, containing 1% DMSO. The dermal fibroblasts were maintained at 37° C., in a 5% CO2/95% air atmosphere, for 24 h or 72 h. At 24 h and 72 h, the culture dishes were treated with formalized horse blood erythrocytes (TCS Biosciences Ltd., Buckinghamshire, U.K.). The formalized horse blood erythrocytes were washed in PBS, to remove sodium azide (3×20 ml) and centrifuged at 100 g/7 min, at 4° C. The erythrocyte cell pellet obtained was re-suspended in serum-free, Fibroblast-Serum Containing Medium, to a density of 1×10^8 cells/ml. Aliquots of the erythrocyte cell suspension (500 μl) were supplemented to each culture dish and the dishes agitated, prior to maintenance at 37° C., in a 5% CO2/95% air atmosphere, for 15 min. Zones of erythrocyte exclusion were visualized by light microscopy, using a Zeiss Axiovery 135 Inverted Microscope (Carl Zeiss Ltd., Hertfordshire, U.K.), with a Hamamatsun C5985 chilled CCD camera (Hamamatsu Photonics U.K. Ltd., Hertfordshire, U.K.) and using Openlab Software 3.0.8 (Improvision Ltd., Warwickshire, U.K.). Each experiment was performed on three separate occasions.

For test [2], the system named is dermal fibroblasts. Description: Hyaluronan synthesis by dermal fibroblasts (Hyaluronic Acid Quantitative Test Kit). To be noted: TGF-β1 10 ng/ml, absence of PEP005, 24 h.
Source text: as §1
Following trypsinization, dermal fibroblasts were seeded in 24-well tissue culture plates in PEP005-free, Fibroblast-Serum Containing Medium (1 ml), at a cell density of 2.5×10^4 cell/well. Dermal fibroblasts were maintained at 37° C., in a 5% CO2/95% air atmosphere, for 48 h, prior to maintenance in serum-free, Fibroblast-Serum Containing Medium (1 ml), for a further 48 h. At this stage, the serum-free, culture medium was replaced with Fibroblast-Serum Containing Medium (600 μl), containing 0 μg/ml, 0.01 μg/ml, 0.1 μg/ml, 1 μg/ml, 10 μg/ml or 100 μg/ml PEP005, +/−TGF-β1 (10 ng/ml) (three culture wells per PEP005 concentration). A control was also established, consisting of cells in serum-free, Fibroblast-Serum Containing Medium, containing 1% DMSO. The dermal fibroblasts were maintained at 37° C., in a 5% CO2/95% air atmosphere, for 24 h or 72 h, prior to culture medium removal. Hyaluronan synthesis in the collected culture media was quantified, using a Hyaluronic Acid Quantitative Test Kit (Corgenix U.K. Ltd., Cambridgeshire, U.K.), which utilizes a naturally occurring bovine binding protein to hyaluronan. Supernatants were assayed, as per manufacturer's instructions, and optical density measured using a spectrophotometer at 450 nm. Hyaluronan concentrations were determined by comparing the absorbance of the sample against a reference curve prepared from the reagent blank and standards. Each experiment was performed on three separate occasions.

Another test deals with HAS3. Description: HAS3 gene expression by dermal fibroblasts (qPCR). The note with it: TGF-β1 10 ng/ml.
Source text: as §1, §2, §3

A further test deals with HAS1. Description: HAS1 gene expression by dermal fibroblasts (qPCR). The note with it: TGF-β1 10 ng/ml.
Source text: as §1, §2, §3

Consider “TGF-β1: TGF-β1 (10 ng/ml) added to dermal fibroblast cultures with or without PEP005 [reference compound]”, for which the HAS2 expression result is listed as “little effect” with HAS2 (absence of PEP005, 24 h) and “minimal effects” with HAS2 (absence of PEP005, 72 h (p>0.05)). The “hyaluronan pericellular coat formation” value in the test on dermal fibroblasts [1] is reported as “slight increase”. Also, the hyaluronan synthesis result in the test on dermal fibroblasts [2] was “slight stimulation”. Also, the HAS3 expression result in the test on HAS3 (absence of PEP005, 24 h (p<0.01)) was “inhibitory effect”; with HAS3 (absence of PEP005, 72 h) it was “inhibitory effect”. For the same substance, the HAS1 expression entry with HAS1 (absence of PEP005, 24 h, compared to control fibroblasts (p<0.001)) was “major up-regulation”; with HAS1 (absence of PEP005, 72 h, compared to control fibroblasts) it was “up-regulation”.

The values above are taken from patent US10143638B2, “Method of treating skin with ingenol mebutate” (LEO Laboratories Limited, priority 2009, dated 2018).
